The text below walks through data of patent US7199157B2, “Use of treprostinil to improve kidney functions” (United Therapeutics Corporation, priority 2003, dated 2007).

In data set [1] the test system is patients with class III or class IV heart failure. Conditions: cited from earlier work.
For data set [2], the system named is human alveolar macrophages. As to conditions: cited from earlier work.
In data set [3] the test system is patients suffering from poor kidney function. As to the kind of experiment: Administration of Treprostinil to humans suffering from kidney malfunction/failure (chronic continuous subcutaneous infusion). On the procedure:
The target dose is determined by titration in patients for a clinical effect. The medication is delivered by a small pump that is connected to a catheter placed under the skin. In this manner, increasing dosages of Treprostinil are administered to patients by chronic continuous subcutaneous infusion. […] An example of one target dose is 10 ng/kg/min.

For data set [4], the system named is human pulmonary arterial smooth muscle cells. As to conditions: cited from earlier work.

As for `CCCCC[C@H](O)CC[C@@H]1[C@H]2Cc3cccc(OCC(=O)[O-])c3C[C@H]2C[C@H]1O.[Na+]` [Treprostinil], in data set [1], the vasodilator effects entry is reported as “vasodilator effects”. For the same molecule, the “inflammatory cytokine (tumor necrosis factor-α, interleukin-1β, interleukin-6, granulocyte macrophage colony-stimulating factor) secretion and gene expression” value in data set [2] was “inhibits”. The urine production entry in data set [3] (at least two patients with poor kidney function, also on dialysis, treatment over the course of several weeks) is reported as “improved urine production”. Besides, the common side effects entry in data set [3] (at peak dose, continuous subcutaneous infusion) was “headache and nausea”. The “proliferation of human pulmonary arterial smooth muscle cells” value in data set [4] was “inhibits proliferation”.
